Paper PMC5218480 (PLoS ONE, 2017)

System: MV-4-11 cells
Test: Gene expression microarray analysis (Affymetrix PrimeView) and GSEA
Format: cell-based, human
Parameters: RFU PODN (11730768_x_at) / Fold change /veh PODN (11730768_x_at) / RFU LINC00158 (11744669_a_at) / Fold change /veh LINC00158 (11744669_a_at) / RFU DUSP10 (11751237_a_at) / Fold change /veh DUSP10 (11751237_a_at) / RFU ID3 (11757404_x_at) / Fold change /veh ID3 (11757404_x_at) / RFU PLEKHG5 (11737974_s_at) / Fold change /veh PLEKHG5 (11737974_s_at) / RFU LRRC4B (11730491_at) / Fold change /veh LRRC4B (11730491_at) / RFU GIMAP4 (11747438_a_at) / Fold change /veh GIMAP4 (11747438_a_at) / RFU KRT8 (11758183_x_at) / Fold change /veh KRT8 (11758183_x_at) / RFU CNN1 (11734310_a_at) / Fold change /veh CNN1 (11734310_a_at) / RFU VPS37D (11726825_at) / Fold change /veh VPS37D (11726825_at) / RFU C10orf10 (11716522_x_at) / Fold change /veh C10orf10 (11716522_x_at) / RFU KIR2DL2 /// KIR2DL4 /// KIR2DL5A /// KIR2DL5B /// KIR2DS1 /// KIR2DS2 /// KIR2DS3 /// KIR2DS4 /// KIR3DL3 /// KIR3DL3 /// KIR3DS1 (11738374_at) / Fold change /veh KIR2DL2 /// KIR2DL4 /// KIR2DL5A /// KIR2DL5B /// KIR2DS1 /// KIR2DS2 /// KIR2DS3 /// KIR2DS4 /// KIR3DL3 /// KIR3DL3 /// KIR3DS1 (11738374_at) / RFU C1QL1 (11718748_at) / Fold change /veh C1QL1 (11718748_at) / RFU TMPRSS4 (11747572_a_at) / Fold change /veh TMPRSS4 (11747572_a_at) / RFU HAMP (11756126_x_at) / Fold change /veh HAMP (11756126_x_at) / RFU RNFT2 (11725882_a_at) / Fold change /veh RNFT2 (11725882_a_at) / RFU NR4A2 (11747474_a_at) / Fold change /veh NR4A2 (11747474_a_at) / RFU ABCC12 (11746883_a_at) / Fold change /veh ABCC12 (11746883_a_at) / RFU TMEM136 (11760407_x_at) / Fold change /veh TMEM136 (11760407_x_at) / RFU CLDN22 /// WWC2 (11732394_at) / Fold change /veh CLDN22 /// WWC2 (11732394_at) / RFU HLA-DPB1 (11760878_x_at) / Fold change /veh HLA-DPB1 (11760878_x_at) / RFU SPINT1 (11716480_a_at) / Fold change /veh SPINT1 (11716480_a_at) / RFU GAP43 (11754022_s_at) / Fold change /veh GAP43 (11754022_s_at) / RFU A4GNT (11735810_at) / Fold change /veh A4GNT (11735810_at) / RFU PRB3 (11715151_x_at) / Fold change /veh PRB3 (11715151_x_at) / RFU TUBB4B (11761932_at) / Fold change /veh TUBB4B (11761932_at) / RFU CAPN14 (11732068_a_at) / Fold change /veh CAPN14 (11732068_a_at) / RFU TMCC2 (11721928_a_at) / Fold change /veh TMCC2 (11721928_a_at) / RFU IRGQ (11745062_a_at) / Fold change /veh IRGQ (11745062_a_at) / RFU FAM174B (11720279_a_at) / Fold change /veh FAM174B (11720279_a_at) / RFU TMPRSS4 (11748680_a_at) / Fold change /veh TMPRSS4 (11748680_a_at) / RFU FAM212B (11763350_a_at) / Fold change /veh FAM212B (11763350_a_at) / RFU PLEKHG5 (11743358_a_at) / Fold change /veh PLEKHG5 (11743358_a_at) / RFU ZSCAN30 (11745921_a_at) / Fold change /veh ZSCAN30 (11745921_a_at) / RFU CMKLR1 (11741424_a_at) / Fold change /veh CMKLR1 (11741424_a_at) / RFU LOC101060620 /// MAPK8IP1 (11723275_at) / Fold change /veh LOC101060620 /// MAPK8IP1 (11723275_at) / RFU SPTSSB (11747773_x_at) / Fold change /veh SPTSSB (11747773_x_at) / RFU PRSS12 (11739890_at) / Fold change /veh PRSS12 (11739890_at) / RFU BIN1 (11741810_x_at) / Fold change /veh BIN1 (11741810_x_at) / RFU WNT11 (11732464_a_at) / Fold change /veh WNT11 (11732464_a_at) / RFU C10orf10 (11716521_a_at) / Fold change /veh C10orf10 (11716521_a_at) / RFU C5orf56 (11738089_at) / Fold change /veh C5orf56 (11738089_at) / RFU CYB561 (11721691_x_at) / Fold change /veh CYB561 (11721691_x_at) / RFU ANKRD19P (11752326_a_at) / Fold change /veh ANKRD19P (11752326_a_at) / RFU OR2T12 /// OR2T33 /// OR2T8 (11738714_s_at) / Fold change /veh OR2T12 /// OR2T33 /// OR2T8 (11738714_s_at) / RFU VCAN (11748164_a_at) / Fold change /veh VCAN (11748164_a_at) / RFU JSRP1 (11732532_at) / Fold change /veh JSRP1 (11732532_at) / RFU KRTAP10-11 (11738290_x_at) / Fold change /veh KRTAP10-11 (11738290_x_at) / RFU MYO3A (11730013_a_at) / Fold change /veh MYO3A (11730013_a_at) / RFU EBF3 (11725865_a_at) / Fold change /veh EBF3 (11725865_a_at) / RFU CAMK2N1 (11719241_x_at) / Fold change /veh CAMK2N1 (11719241_x_at) / RFU C5orf56 (11738088_a_at) / Fold change /veh C5orf56 (11738088_a_at) / RFU OLFML3 (11715873_a_at) / Fold change /veh OLFML3 (11715873_a_at) / RFU LOC100653217 /// NTM (11731650_a_at) / Fold change /veh LOC100653217 /// NTM (11731650_a_at) / RFU MAPK11 (11762145_a_at) / Fold change /veh MAPK11 (11762145_a_at) / RFU FIZ1 (11724087_x_at) / Fold change /veh FIZ1 (11724087_x_at) / RFU OASL (11726364_x_at) / Fold change /veh OASL (11726364_x_at) / RFU SOX15 (11748057_x_at) / Fold change /veh SOX15 (11748057_x_at) / RFU CD79A (11719716_a_at) / Fold change /veh CD79A (11719716_a_at) / RFU HIST1H1D (11736915_at) / Fold change /veh HIST1H1D (11736915_at) / RFU CASKIN2 (11723855_a_at) / Fold change /veh CASKIN2 (11723855_a_at) / RFU LOC730098 (11760151_x_at) / Fold change /veh LOC730098 (11760151_x_at) / RFU OR4N2 (11742367_at) / Fold change /veh OR4N2 (11742367_at) / RFU PRRT2 (11749266_a_at) / Fold change /veh PRRT2 (11749266_a_at) / RFU SNX32 (11753110_a_at) / Fold change /veh SNX32 (11753110_a_at) / RFU CDHR5 (11726645_a_at) / Fold change /veh CDHR5 (11726645_a_at) / RFU RCAN1 (11760418_a_at) / Fold change /veh RCAN1 (11760418_a_at) / RFU FAM167A (11723789_a_at) / Fold change /veh FAM167A (11723789_a_at) / RFU FAM26E (11764081_at) / Fold change /veh FAM26E (11764081_at) / RFU ISYNA1 (11749810_s_at) / Fold change /veh ISYNA1 (11749810_s_at) / RFU ACY1 (11761880_at) / Fold change /veh ACY1 (11761880_at) / RFU 11764098_at / Fold change /veh 11764098_at / RFU SAMD14 (11745864_x_at) / Fold change /veh SAMD14 (11745864_x_at) / RFU NPB (11741838_a_at) / Fold change /veh NPB (11741838_a_at) / RFU TMPRSS6 (11731388_a_at) / Fold change /veh TMPRSS6 (11731388_a_at) / RFU KRTAP10-2 (11738614_at) / Fold change /veh KRTAP10-2 (11738614_at) / RFU ARHGAP8 /// PRR5-ARHGAP8 (11727945_x_at) / Fold change /veh ARHGAP8 /// PRR5-ARHGAP8 (11727945_x_at) / RFU KRTAP5-7 /// NADSYN1 (11734609_at) / Fold change /veh KRTAP5-7 /// NADSYN1 (11734609_at) / RFU RASL12 (11751679_a_at) / Fold change /veh RASL12 (11751679_a_at) / RFU CDKN2B (11736163_a_at) / Fold change /veh CDKN2B (11736163_a_at) / RFU PRF1 (11729649_at) / Fold change /veh PRF1 (11729649_at) / RFU, ZNF638 /// ZNF638-IT1 / Fold change vs veh, ZNF638 /// ZNF638-IT1 / RFU, PANK3 / Fold change vs veh, PANK3 / RFU, SH3YL1 / Fold change vs veh, SH3YL1 / RFU, ZEB2 / Fold change vs veh, ZEB2 / RFU, NRIP1 / Fold change vs veh, NRIP1 / RFU, PTTG1IP / Fold change vs veh, PTTG1IP / RFU, CAPN2 / Fold change vs veh, CAPN2 / RFU, MED14 / Fold change vs veh, MED14 / RFU, SNORA58 / Fold change vs veh, SNORA58 / RFU, C1orf63 / Fold change vs veh, C1orf63 / RFU, LRRFIP1 / Fold change vs veh, LRRFIP1 / RFU, NDUFAF7 / Fold change vs veh, NDUFAF7 / RFU, SLC12A2 / Fold change vs veh, SLC12A2 / RFU, IBTK / Fold change vs veh, IBTK / RFU, ESF1 / Fold change vs veh, ESF1 / Fold change vs veh, TMEM50B / RFU, TAOK1 / Fold change vs veh, TAOK1 / RFU, ACBD3 / Fold change vs veh, ACBD3 / RFU, TMA16 / Fold change vs veh, TMA16 / RFU, RWDD3 / Fold change vs veh, RWDD3 / RFU, BCAT1 / Fold change vs veh, BCAT1 / RFU, EDEM3 / Fold change vs veh, EDEM3 / RFU, TMEM33 / Fold change vs veh, TMEM33 / RFU, WDR75 / Fold change vs veh, WDR75 / RFU, AHCTF1 / Fold change vs veh, AHCTF1 / RFU, TFRC / Fold change vs veh, TFRC / RFU, ZDHHC17 / Fold change vs veh, ZDHHC17 / RFU, NOM1 / Fold change vs veh, NOM1 / RFU, ARL8B / Fold change vs veh, ARL8B / RFU, ZBTB11 / Fold change vs veh, ZBTB11 / RFU, TAMM41 / Fold change vs veh, TAMM41 / RFU, KIAA1704 /// LOC100996395 / Fold change vs veh, KIAA1704 /// LOC100996395 / RFU, ING1 / Fold change vs veh, ING1 / RFU, TRMT61B / Fold change vs veh, TRMT61B / RFU, FUBP3 / Fold change vs veh, FUBP3 / RFU, TP53 / Fold change vs veh, TP53 / RFU, TNKS2 / Fold change vs veh, TNKS2 / RFU, ZFP14 / Fold change vs veh, ZFP14 / RFU, ACTR2 / Fold change vs veh, ACTR2 / RFU, PPP3R1 / Fold change vs veh, PPP3R1 / RFU, PIK3R1 / Fold change vs veh, PIK3R1 / RFU, HNRNPA1 / Fold change vs veh, HNRNPA1 / RFU, RNF170 / Fold change vs veh, RNF170 / RFU, ZNF28 / Fold change vs veh, ZNF28 / RFU, RNGTT / Fold change vs veh, RNGTT / RFU, OGT / Fold change vs veh, OGT / RFU, BRD1 / Fold change vs veh, BRD1 / RFU, MARS / Fold change vs veh, MARS / RFU, ZNF655 / Fold change vs veh, ZNF655 / RFU, FAHD1 / Fold change vs veh, FAHD1 / RFU, BDP1 / Fold change vs veh, BDP1 / RFU, LRRCC1 / Fold change vs veh, LRRCC1 / RFU, ARID1A / Fold change vs veh, ARID1A / RFU, ZNF146 / Fold change vs veh, ZNF146 / RFU, ZNF330 / Fold change vs veh, ZNF330 / RFU, GPN3 / Fold change vs veh, GPN3 / RFU, C9orf123 / Fold change vs veh, C9orf123 / RFU, N4BP2L2 / Fold change vs veh, N4BP2L2 / RFU, ARFIP1 / Fold change vs veh, ARFIP1 / RFU, FAM179B / Fold change vs veh, FAM179B / RFU, BCL10 / Fold change vs veh, BCL10 / RFU, UHRF1BP1L / Fold change vs veh, UHRF1BP1L / RFU, BET1 / Fold change vs veh, BET1 / RFU, CNOT2 / Fold change vs veh, CNOT2 / RFU, ZNF268 / Fold change vs veh, ZNF268 / Fold change vs veh, ZNF507 / RFU, DGCR2 / Fold change vs veh, DGCR2 / RFU, WDSUB1 / Fold change vs veh, WDSUB1 / Fold change vs veh, HSP90B1 /// MIR3652 / RFU, ADSS / Fold change vs veh, ADSS / RFU, GK / Fold change vs veh, GK / RFU, ZNF148 / Fold change vs veh, ZNF148 / RFU, TAF9 / Fold change vs veh, TAF9 / RFU, SLC1A5 / Fold change vs veh, SLC1A5 / RFU, SLMO2 / Fold change vs veh, SLMO2 / RFU, ABCC4 / Fold change vs veh, ABCC4 / RFU, LOC101060439 /// RAP1B / Fold change vs veh, LOC101060439 /// RAP1B / RFU, RFX7 / Fold change vs veh, RFX7 / RFU, GTPBP10 / Fold change vs veh, GTPBP10 / RFU, CNEP1R1 / Fold change vs veh, CNEP1R1 / RFU, BIVM-ERCC5 /// ERCC5 / Fold change vs veh, BIVM-ERCC5 /// ERCC5 / RFU, ILF3 / Fold change vs veh, ILF3 / RFU 11762660_at / Fold change /veh 11762660_at / RFU VCAN (11757783_s_at) / Fold change /veh VCAN (11757783_s_at) / RFU DDX43 (11728927_at) / Fold change /veh DDX43 (11728927_at) / RFU KRT8 (11758188_x_at) / Fold change /veh KRT8 (11758188_x_at) / RFU NKD1 (11759106_at) / Fold change /veh NKD1 (11759106_at) / RFU SRD5A1 (11742802_a_at) / Fold change /veh SRD5A1 (11742802_a_at) / RFU TPSAB1 /// TPSB2 (11721975_s_at) / Fold change /veh TPSAB1 /// TPSB2 (11721975_s_at) / RFU GSTM3 (11746129_a_at) / Fold change /veh GSTM3 (11746129_a_at) / RFU IL23R (11737362_x_at) / Fold change /veh IL23R (11737362_x_at) / RFU TMEM51 (11727254_a_at) / Fold change /veh TMEM51 (11727254_a_at) / RFU PIWIL2 (11732686_x_at) / Fold change /veh PIWIL2 (11732686_x_at) / RFU ORM1 (11744905_x_at) / Fold change /veh ORM1 (11744905_x_at) / RFU CCDC152 (11743942_at) / Fold change /veh CCDC152 (11743942_at) / RFU ECM1 (11717891_a_at) / Fold change /veh ECM1 (11717891_a_at) / RFU IL23R (11748794_a_at) / Fold change /veh IL23R (11748794_a_at) / RFU TNFAIP8L3 (11732012_x_at) / Fold change /veh TNFAIP8L3 (11732012_x_at) / RFU MBOAT4 (11741988_at) / Fold change /veh MBOAT4 (11741988_at) / RFU 11764193_at / Fold change /veh 11764193_at / RFU TMEM53 (11763286_at) / Fold change /veh TMEM53 (11763286_at) / RFU MAGEB2 (11727129_at) / Fold change /veh MAGEB2 (11727129_at) / RFU TMEM200A (11744735_a_at) / Fold change /veh TMEM200A (11744735_a_at) / RFU CCDC152 (11751479_a_at) / Fold change /veh CCDC152 (11751479_a_at) / RFU FAM211A (11726209_a_at) / Fold change /veh FAM211A (11726209_a_at) / RFU RGS16 (11746705_a_at) / Fold change /veh RGS16 (11746705_a_at) / RFU VCAN (11755009_s_at) / Fold change /veh VCAN (11755009_s_at) / RFU RHOB (11743442_s_at) / Fold change /veh RHOB (11743442_s_at) / RFU RGS16 (11720943_a_at) / Fold change /veh RGS16 (11720943_a_at) / RFU RGS16 (11720944_at) / Fold change /veh RGS16 (11720944_at) / RFU, VPS4B / Fold change vs veh, VPS4B / RFU, CREB1 / Fold change vs veh, CREB1 / RFU, DNAJC13 / Fold change vs veh, DNAJC13 / RFU, GNAQ / Fold change vs veh, GNAQ / RFU, CDK5R1 / Fold change vs veh, CDK5R1 / RFU, ZRANB3 / Fold change vs veh, ZRANB3 / RFU, CUL4A / Fold change vs veh, CUL4A / RFU, CCNY / Fold change vs veh, CCNY / RFU, UFL1 / Fold change vs veh, UFL1 / RFU, COG3 / Fold change vs veh, COG3 / RFU, DIAPH2 / Fold change vs veh, DIAPH2 / RFU, SKA2 / Fold change vs veh, SKA2 / RFU, AFF3 / Fold change vs veh, AFF3 / RFU, LMF1 / Fold change vs veh, LMF1 / RFU, IPO11 / Fold change vs veh, IPO11 / RFU, DFFB / Fold change vs veh, DFFB / RFU, FOXP1 / Fold change vs veh, FOXP1 / RFU, CARD8 / Fold change vs veh, CARD8 / RFU, STRN3 / Fold change vs veh, STRN3 / RFU, ADK / Fold change vs veh, ADK / RFU, RASSF2 / Fold change vs veh, RASSF2 / RFU, WIPF1 / Fold change vs veh, WIPF1 / RFU, LARP1B / Fold change vs veh, LARP1B / RFU, RASA1 / Fold change vs veh, RASA1 / RFU, RB1 / Fold change vs veh, RB1 / RFU, PPFIA1 / Fold change vs veh, PPFIA1 / RFU, MAT2A / Fold change vs veh, MAT2A / RFU, CCT5 / Fold change vs veh, CCT5 / RFU, WDR92 / Fold change vs veh, WDR92 / RFU, CUX1 / Fold change vs veh, CUX1 / RFU, TTC7A / Fold change vs veh, TTC7A / RFU, TMEM135 / Fold change vs veh, TMEM135 / RFU, DEPTOR / Fold change vs veh, DEPTOR / RFU, CPM / Fold change vs veh, CPM / RFU, DNAJB6 / Fold change vs veh, DNAJB6 / RFU, CACNA2D3 / Fold change vs veh, CACNA2D3 / RFU, DTX4 / Fold change vs veh, DTX4 / RFU, TFCP2 / Fold change vs veh, TFCP2 / RFU, GMCL1 /// GMCL1P1 / Fold change vs veh, GMCL1 /// GMCL1P1 / RFU, AEBP2 / Fold change vs veh, AEBP2 / RFU, SNHG1 /// SNORD22 /// SNORD25 /// SNORD26 /// SNORD27 /// SNORD28 /// SNORD29 /// SNORD31 / Fold change vs veh, SNHG1 /// SNORD22 /// SNORD25 /// SNORD26 /// SNORD27 /// SNORD28 /// SNORD29 /// SNORD31 / Fold change (Aza/veh), C12orf56 (ProbeSet 11735607_a_at) / Fold change (ACY-1035/veh), C12orf56 (ProbeSet 11735607_a_at) / Fold change (Aza/veh), FGFR1OP (ProbeSet 11751329_s_at) / Fold change (ACY-1035/veh), FGFR1OP (ProbeSet 11751329_s_at) / Fold change (Aza/veh), VPS36 (ProbeSet 11739960_a_at) / Fold change (ACY-1035/veh), VPS36 (ProbeSet 11739960_a_at) / RFU SYPL1 (11715823_x_at) / Fold change /veh SYPL1 (11715823_x_at) / RFU IGFBP7 (11715501_s_at) / Fold change /veh IGFBP7 (11715501_s_at) / RFU REEP3 (11722064_at) / Fold change /veh REEP3 (11722064_at) / RFU IGLL1 (11728026_x_at) / Fold change /veh IGLL1 (11728026_x_at): dose or concentration left out as unconfirmed
Settings: ProbeSet 11716999_a_at; LIST D

SMILES: Nc1ncn([C@@H]2O[C@H](CO)[C@@H](O)[C@H]2O)c(=O)n1 [azacitidine]
- Fold change vs veh, RASA1: 0.72
